In patent publication US20250145592A1 (NICO Therapeutics, Inc., priority 2022, published 2025):
Where two headings read alike, the source gives them in different places.

System: IL-1β secretion in THP-1 cells (NLRP3)
Experiment: IL-1β secretion assay in PMA-differentiated THP-1 cells stimulated with LPS and nigericin (ELISA readout)
Format: cell-based
Details: IL-1β ELISA
Experimental: Compounds as provided herein were tested in the following assay. Cell culture medium employed contained RPMI 1640 medium (89%), FBS (10%), Pen/Strep (1%), and 2-mercaptoethanol (0.05 mM). Freezing medium was made up of 90% FBS and 10% DMSO. THP-1 cells were removed from the liquid nitrogen and placed into a 37° C. water bath to thaw, until signs of ice dissipated. The cells were then added to 9 mL of warm cell culture medium and centrifuged for 5 minutes at 1000 rpm. The supernatant was discarded, and the cells were resuspended in new cell culture medium. THP-1 cells were then split and cultured in the cell culture medium, being passaged every 2-3 days with the cell density will be maintained between 5×10^5 and 1.5×10^6 viable cells/mL.
To freeze, cells were resuspended with fresh freezing medium, adjusting the cell density to 5×10^6 cells/mL. The cell suspension was partitioned into 1 mL aliquots per vial, and the vials were transferred to a −80° C. freezer. After one day at −80° C., the cell vials were transferred to liquid nitrogen freezer for storage.
PMA was dissolved in DMSO to make a stock solution at 5 mg/ml and stored in 10 μl aliquots at −20° C. for single use. PMA is added to normal growth medium. LPS was diluted with 1 mL of water solution to provide a 1 mg/mL stock solution and stored in 15 μl aliquots at −20° C. for single use. Nigericin is diluted in ice cold 100% ethanol to 5 mg/ml (6.7 mM) and stored in 75 μL aliquots at −20° C. for single use. Serum-free media contains RPMI 1640 medium (99%), Pen/Strep (1%), and 2-mercaptoethanol (0.05 mM). The two control conditions used to qualify and normalize test compound dose-response curves were as follows: High Control=25 ng/mL LPS, […], 0.5% DMSO, Low Control=25 ng/mL, LPS, 0.5% DMSO.
THP-1 cells were diluted to provide a suspension at a concentration of 1.0×10^6 cells/mL with the total volume of suspension required to enable the desired number of assay plates. The growth media was supplemented with PMA (5 ng/mL final concentration) and the cells were incubated at 37° C. under a humidified atmosphere of 5% CO2 for 40 h.
All media was carefully aspirated from each culture flask. The cells were washed carefully with 1×DPBS. The cells were then briefly digested with trypsin LE for 5 minutes at 23° C. and immediately resuspended in cell growth media. After resuspension, the cells were centrifuged at 1000 rpm for 3 minutes and the supernatant was discarded. The cells were resuspended in DPBS and once again centrifuged at 1000 rpm for 5 minutes. The supernatant was discarded and the cell pellet was resuspended in serum-free media supplemented with LPS (25 ng/mL final concentration) to enable the distribution of 30K THP-1 cells within 45 μL of media into each well of 384-well PDL-coated plates. The 384-well plates were then incubated at 37° C. under a humidified atmosphere of 5% CO2 for 2 h. Following this period, test compounds were dispensed by Tecan across the desired concentration range with all wells normalized to a final 0.5% DMSO concentration. The plates were then then incubated at 37° C. under a humidified atmosphere of 5% CO2 for 1 h. Following this period, 5 μL of the 5 mg/mL nigericin stock solution was added to each of the appropriate wells and plates were centrifuged at 1000 rpm for 30 seconds. The plates were the immediately reintroduced to the incubator at 37° C. under a humidified atmosphere of 5% CO2 for 2 h. After this time, 35 μL/well of supernatant was collected and transferred into v-bottom plate and centrifuged at 1000 rpm for 1 minute. These supernatant aliquots were analyzed using an IL-Iβ detection kit as described below. If needed, the test samples could be snap frozen and stored at −80° C. until analyzed.
To prepare each ELISA plate, capture antibody (mAb Mt175) was diluted with PBS to a final concentration of […] and then 20 µL of this solution was added to each well of the ELISA plate.
Each plate was allowed to incubate overnight at 4° C. […]

[1] = Table 3, LPS 25 ng/mL + nigericin, read-out: Activity (IC50 class)
[2] = Table 4, LPS 25 ng/mL + nigericin, read-out: Activity (IC50)
[3] = Homo sapiens, THP-1, Table 3, LPS 25 ng/mL + nigericin, read-out: Activity (IC50 class)
[4] = Homo sapiens, THP-1, Table 4, LPS 25 ng/mL + nigericin, read-out: Activity (IC50)

SMILES	IC50 [1]	IC50 [2]	IC50 [3]	IC50 [4]
O=C(Cn1nc(OC2CC3(C2)CC3(F)F)c2cc(Br)ccc2c1=O)Nc1nc2ccccn2n1 (single isomer, unassigned) [Example 26, 2-[6-bromo-4-(2,2-difluorospiro[2.3]hexan-5-yl)oxy-1-oxophthalazin-2-yl]-N-([1,2,4]triazolo[1,5-a]pyridin-2-yl)acetamide]	< 1000 nM	596 nM		
CC[C@H]1C[C@@H]1Oc1nn(CC(=O)Nc2ncc(F)cn2)c(=O)c2ccc(Br)cc12 (relative stereo) [Example 51, 2-[6-bromo-4-[trans-2-ethylcyclopropyl]oxy-1-oxophthalazin-2-yl]-N-(5-fluoropyrimidin-2-yl)acetamide]			< 1000 nM	790 nM
O=C(Cn1nc(O[C@H]2C[C@@H](F)C2)c2cc(Br)ccc2c1=O)Nc1ncc(F)cn1 [Example 44, 2-[6-bromo-4-(cis-3-fluorocyclobutyl)oxy-1-oxophthalazin-2-yl]-N-(5-fluoropyrimidin-2-yl)acetamide]			< 1000 nM	492 nM
Cc1cnc(NC(=O)Cn2nc(OC3CC3)c3cc(Br)ccc3c2=O)nn1 [Example 38, 2-(6-bromo-4-cyclopropyloxy-1-oxophthalazin-2-yl)-N-(6-methyl-1,2,4-triazin-3-yl)acetamide]			< 1000 nM	444 nM
O=C(Cn1nc(O[C@H]2C[C@H](F)C2)c2cc(Br)ccc2c1=O)Nc1ncc(F)cn1 [Example 45, 2-[6-bromo-4-(trans-3-fluorocyclobutyl)oxy-1-oxophthalazin-2-yl]-N-(5-fluoropyrimidin-2-yl)acetamide]			< 1000 nM	912 nM
C[C@@H]1CC1Oc1nn(CC(=O)Nc2ncc(F)cn2)c(=O)c2ccc(Br)cc12 (single isomer, unassigned) [Example 3, 2-[6-bromo-4-[2-trans-methylcyclopropyl]oxy-1-oxophthalazin-2-yl]-N-(5-fluoropyrimidin-2-yl)acetamide]	< 1000 nM	35 nM		
COc1nn(CC(=O)Nc2ncc(F)cn2)c(=O)c2ccc(C3CC3)c(F)c12 [Example 32, 2-(6-cyclopropyl-5-fluoro-4-methoxy-1-oxophthalazin-2-yl)-N-(5-fluoropyrimidin-2-yl)acetamide]			< 1000 nM	183 nM
O=C(Cn1nc(OC2CC2)c2cc(C3CCC3)ccc2c1=O)Nc1ncc(F)cn1 [Example 39, 2-(6-cyclobutyl-4-cyclopropyloxy-1-oxophthalazin-2-yl)-N-(5-fluoropyrimidin-2-yl)acetamide]			1000 to 10000 nM	1120 nM
O=C(Cn1nc(OC2CC3CC[C@@H]2C3)c2cc(Br)ccc2c1=O)Nc1ncc(F)cn1 (some centres unmarked) [Example 46, 2-[4-[[(1r,2r,4s)-2-bicyclo[2.2.1]heptanyl]oxy]-6-bromo-1-oxophthalazin-2-y1]-N-(5-fluoropyrimidin-2-yl)acetamide]			< 1000 nM	862 nM
O=C(Cn1nc(OC2CC3(CCC3)C2)c2cc(Br)ccc2c1=O)Nc1ncc(F)cn1 [Example 40, 2-(6-bromo-1-oxo-4-spiro[3.3]heptan-2-yloxyphthalazin-2-yl)-N-(5-fluoropyrimidin-2-yl)acetamide]			< 1000 nM	17 nM
